# Measured values reported in publication PMC7044277 (Nature Communications, 2020).
# Values joined by “and” are separate entries in the source; they are usually repeats but may differ in a detail not shown here. Identical values can stand only once.
# What was measured:
# Assay type in all cases: cell-based
# 320 non-olfactory GPCRs [1] = target: T1, 320 non-olfactory GPCRs (Homo sapiens, UniProt P13945)
# T1 construct: expressed in transfected cells; host or cells: HTLA cells
# 320 non-olfactory GPCRs [2] = target: T2, 320 non-olfactory GPCRs (Homo sapiens, UniProt Q8IZF4)
# T2 construct: expressed in transfected cells; host or cells: HTLA cells
# 320 non-olfactory GPCRs [3] = target: T3, 320 non-olfactory GPCRs (Homo sapiens, UniProt Q86SM8); details: receptor MRGPRE; replicate values, Fig_4g
# T3 construct: expressed in transfected cells; host or cells: HTLA cells
# 320 non-olfactory GPCRs [4] = target: 320 non-olfactory GPCRs (Homo sapiens, UniProt P32238)
# 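For Fold of Basal in this document: compound tested at 1 µM final concentration.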
# 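For GPCRome agonism screen response in this document: fold over basal response of each receptor without drug.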
# T1 sequence (P13945 whole entry): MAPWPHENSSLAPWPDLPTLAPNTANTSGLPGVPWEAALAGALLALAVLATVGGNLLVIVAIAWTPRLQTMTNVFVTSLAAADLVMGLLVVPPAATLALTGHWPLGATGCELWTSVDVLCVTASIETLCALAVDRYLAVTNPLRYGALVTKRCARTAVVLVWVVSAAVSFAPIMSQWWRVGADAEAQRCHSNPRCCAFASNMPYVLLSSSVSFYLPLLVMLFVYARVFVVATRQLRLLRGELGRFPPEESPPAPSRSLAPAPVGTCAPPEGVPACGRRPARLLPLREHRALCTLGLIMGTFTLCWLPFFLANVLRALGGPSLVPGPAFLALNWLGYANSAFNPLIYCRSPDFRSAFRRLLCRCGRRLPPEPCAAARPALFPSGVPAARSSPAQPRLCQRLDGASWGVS
# T3 sequence (Q86SM8 whole entry): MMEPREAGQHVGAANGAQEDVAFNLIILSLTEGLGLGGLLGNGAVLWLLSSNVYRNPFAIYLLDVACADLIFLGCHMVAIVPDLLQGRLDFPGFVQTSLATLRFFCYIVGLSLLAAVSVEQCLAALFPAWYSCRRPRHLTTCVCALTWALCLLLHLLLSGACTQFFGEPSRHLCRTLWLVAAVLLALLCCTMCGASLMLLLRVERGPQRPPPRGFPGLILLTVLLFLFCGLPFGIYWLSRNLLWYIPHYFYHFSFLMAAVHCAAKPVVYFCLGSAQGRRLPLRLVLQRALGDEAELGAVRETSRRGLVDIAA
# T2 sequence (Q8IZF4 22-528): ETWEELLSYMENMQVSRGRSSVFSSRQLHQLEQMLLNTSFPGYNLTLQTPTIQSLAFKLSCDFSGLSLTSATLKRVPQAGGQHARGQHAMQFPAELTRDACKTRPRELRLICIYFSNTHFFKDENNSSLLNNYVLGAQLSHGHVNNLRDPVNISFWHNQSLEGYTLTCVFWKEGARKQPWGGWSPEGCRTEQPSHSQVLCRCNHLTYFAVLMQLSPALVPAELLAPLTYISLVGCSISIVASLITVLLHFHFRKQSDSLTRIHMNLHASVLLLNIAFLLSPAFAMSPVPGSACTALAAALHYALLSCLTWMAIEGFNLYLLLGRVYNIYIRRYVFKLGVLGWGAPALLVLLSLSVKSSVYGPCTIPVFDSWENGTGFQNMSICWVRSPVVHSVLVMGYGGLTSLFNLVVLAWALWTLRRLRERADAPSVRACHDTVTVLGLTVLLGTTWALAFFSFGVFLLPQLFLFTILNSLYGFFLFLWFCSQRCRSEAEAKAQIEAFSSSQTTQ
# Chain of 320 non-olfactory GPCRs (Homo sapiens, UniProt P32238) (P32238 whole entry): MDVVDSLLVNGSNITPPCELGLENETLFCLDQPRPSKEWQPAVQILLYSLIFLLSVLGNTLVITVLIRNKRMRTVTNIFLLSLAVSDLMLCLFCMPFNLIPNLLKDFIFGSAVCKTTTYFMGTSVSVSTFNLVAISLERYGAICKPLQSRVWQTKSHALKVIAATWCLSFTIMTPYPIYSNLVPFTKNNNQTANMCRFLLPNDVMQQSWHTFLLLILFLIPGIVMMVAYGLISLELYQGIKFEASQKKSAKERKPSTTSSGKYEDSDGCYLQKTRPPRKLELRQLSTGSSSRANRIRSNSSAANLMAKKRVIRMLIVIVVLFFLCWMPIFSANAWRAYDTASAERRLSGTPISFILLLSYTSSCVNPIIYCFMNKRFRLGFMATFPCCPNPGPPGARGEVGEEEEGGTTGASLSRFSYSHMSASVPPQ
compound,measurement,setting,value
CCOc1cccc2cc(C(C)NCC3(O)CCCCC3)oc12 (stereo not shown) [O4LE6],Fold of Basal,320 non-olfactory GPCRs [1],1.471 and 1.539 and 1.208 and 0.8362
same,Fold of Basal,320 non-olfactory GPCRs [2],1.8988 and 1.9 and 1.379
same,GPCRome agonism screen response,320 non-olfactory GPCRs [3],0.6882 and 1.103 and 0.7685 and 1.012
same,Fold of Basal,320 non-olfactory GPCRs [4],0.8879 and 0.8535 and 0.8133 and 1.029
